pIC50: −log10 of the molar value.
The compounds below were run against HSD17B13 (Homo sapiens (Human), UniProt Q7Z5P4) (assay: HSD17B13 enzymatic inhibition assay (150 nM or 50 nM HSD17B13)). Settings: 50 nM HSD17B13; read-out: Inhibition of 50 nM of HSD17B13 IC50.
Type: biochemical

HSD17B13, sequence (Q7Z5P4 other isoform, or with tags, fused parts or gaps): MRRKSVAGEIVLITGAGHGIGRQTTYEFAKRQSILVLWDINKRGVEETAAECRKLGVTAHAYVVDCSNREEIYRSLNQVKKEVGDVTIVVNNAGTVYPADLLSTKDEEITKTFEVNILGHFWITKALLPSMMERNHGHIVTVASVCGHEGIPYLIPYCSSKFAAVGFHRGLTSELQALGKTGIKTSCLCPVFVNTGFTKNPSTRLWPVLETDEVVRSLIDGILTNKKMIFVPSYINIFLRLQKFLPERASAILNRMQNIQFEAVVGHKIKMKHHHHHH

Row | SMILES | pIC50
1 | Cc1ccc2c(c1)S(=O)(=O)c1cc(C)ccc1C2NC(=O)c1cc(-c2ccncc2)c(C(F)(F)F)[nH]c1=O [Compound 493, N-(3,6-dimethyl-10,10-dioxido-9H-thioxanthen-9-yl)-6-oxo-2-(trifluoromethyl)-1,6-dihydro-[3,4′-bipyridine]-5-carboxamide] | 7.05
2 | Cc1ccc2c(c1)Oc1cc(C)ccc1C2NC(=O)c1cc(-c2cc[nH]c(=O)c2)c(C(F)(F)F)[nH]c1=O [Compound 494, N-(3,6-dimethyl-9H-xanthen-9-yl)-2′,6-dioxo-2-(trifluoromethyl)-1,1′,2′,6-tetrahydro-[3,4′-bipyridine]-5-carboxamide] | 7.70
3 | Cc1ccc2c(c1)Oc1cc(C)ccc1C2NC(=O)c1cc(-c2cccnc2)c(C(F)(F)F)[nH]c1=O [Compound 496, N-(3,6-dimethyl-9H-xanthen-9-yl)-6-oxo-2-(trifluoromethyl)-1,6-dihydro-[3,3′-bipyridine]-5-carboxamide] | 7.70
4 | Cc1ccc2c(c1)Oc1cc(C)ccc1C2NC(=O)c1cc(-c2ccc(=O)[nH]c2)c(C(F)(F)F)[nH]c1=O [Compound 497, N-(3,6-dimethyl-9H-xanthen-9-yl)-6,6′-dioxo-2-(trifluoromethyl)-1,1′,6,6′-tetrahydro-[3,3′-bipyridine]-5-carboxamide] | 7.52
5 | COc1cc(-c2cc(C(=O)NC3c4ccc(C)cc4Oc4cc(C)ccc43)c(=O)[nH]c2C(F)(F)F)ccn1 [Compound 498, N-(3,6-dimethyl-9H-xanthen-9-yl)-2′-methoxy-6-oxo-2-(trifluoromethyl)-1,6-dihydro-[3,4′-bipyridine]-5-carboxamide] | 7.70
6 | Cc1ccc2c(c1)Oc1cccc(C)c1C2NC(=O)c1cc(Cc2ccccc2)c(C(F)(F)F)[nH]c1=O (stereo not drawn) [Compound 502, 5-benzyl-N-(1,6-dimethyl-9H-xanthen-9-yl)-2-oxo-6-(trifluoromethyl)-1,2-dihydropyridine-3-carboxamide] | 6.59
7 | Cc1ccc2c(c1)Oc1cccc(C)c1C2NC(=O)c1cc(-c2ccncc2)c(C(F)(F)F)[nH]c1=O (stereo not drawn) [Compound 503, N-(1,6-dimethyl-9H-xanthen-9-yl)-6-oxo-2-(trifluoromethyl)-1,6-dihydro-[3,4′-bipyridine]-5-carboxamide] | 6.64
8 | Cc1ccc2c(c1)Oc1cc(C)ccc1C2NC(=O)c1cc(C2=CCCCC2)c(C(F)(F)F)[nH]c1=O [Compound 505, 5-(cyclohex-1-en-1-yl)-N-(3,6-dimethyl-9H-xanthen-9-yl)-2-oxo-6-(trifluoromethyl)-1,2-dihydropyridine-3-carboxamide] | 7.10
9 | Cc1ccc2c(c1)S(=O)(=O)c1cc(C)ccc1C2NC(=O)c1cc(-c2ncccn2)c(C(F)(F)F)[nH]c1=O [Compound 506, N-(3,6-dimethyl-10,10-dioxido-9H-thioxanthen-9-yl)-2-oxo-5-(pyrimidin-2-yl)-6-(trifluoromethyl)-1,2-dihydropyridine-3-carboxamide] | 7.05
10 | Cc1ccc2c(c1)Sc1cc(C)ccc1C2NC(=O)c1cc(-c2ncccn2)c(C(F)(F)F)[nH]c1=O [Compound 507, N-(3,6-dimethyl-9H-thioxanthen-9-yl)-2-oxo-5-(pyrimidin-2-yl)-6-(trifluoromethyl)-1,2-dihydropyridine-3-carboxamide] | 7.40
11 | CCN1CCN(c2cc(C(=O)NC3c4ccc(C)cc4Oc4cc(C)ccc43)c(=O)[nH]c2C(F)(F)F)CC1 [Compound 512, N-(3,6-dimethyl-9H-xanthen-9-yl)-5-(4-ethylpiperazin-1-yl)-2-oxo-6-(trifluoromethyl)-1,2-dihydropyridine-3-carboxamide] | 7.05
12 | CC(C)(C)OC(=O)Nc1ccc(CSc2ncc(C(=O)NC3c4ccc(Cl)cc4Oc4cc(Cl)ccc43)c(=O)[nH]2)cc1 [Compound 513, tert-butyl (4-(((5-((3,6-dichloro-9H-xanthen-9-yl)carbamoyl)-6-oxo-1,6-dihydropyrimidin-2-yl)thio)methyl)phenyl)carbamate] | 6.04
13 | Cc1ccc2c(c1)Oc1cc(C)ccc1C2NC(=O)c1cc(Oc2ccccc2)c(C(F)(F)F)[nH]c1=O [Compound 514, N-(3,6-dimethyl-9H-xanthen-9-yl)-2-oxo-5-phenoxy-6-(trifluoromethyl)-1,2-dihydropyridine-3-carboxamide] | 7.70
14 | Cc1ccc2c(c1)Sc1cc(C)ccc1C2NC(=O)c1cc(C)c(C(F)(F)F)[nH]c1=O [Compound 515, N-(3,6-dimethyl-9H-thioxanthen-9-yl)-5-methyl-2-oxo-6-(trifluoromethyl)-1,2-dihydropyridine-3-carboxamide] | 7.52
15 | Cc1ccc2c(c1)Oc1cc(C)ccc1C2NC(=O)c1cc(C2=CCNCC2)c(C(F)(F)F)[nH]c1=O [Compound 516, N-(3,6-dimethyl-9H-xanthen-9-yl)-6-oxo-2-(trifluoromethyl)-1,1′,2′,3′,6,6′-hexahydro-[3,4′-bipyridine]-5-carboxamide] | 6.70
16 | O=C(NC1c2ccc(Cl)cc2Oc2cc(Cl)ccc21)c1cnc(COc2ccc(C(F)(F)F)cc2)[nH]c1=O [Compound 517, N-(3,6-dichloro-9H-xanthen-9-yl)-6-oxo-2-((4-(trifluoromethyl)phenoxy)methyl)-1,6-dihydropyrimidine-5-carboxamide] | 6.24
17 | Cc1ccc2c(c1)NCCC2NC(=O)c1ccc(C(F)(F)F)[nH]c1=O (stereo not drawn) [Compound 518, N-(7-methyl-1,2,3,4-tetrahydroquinolin-4-yl)-2-oxo-6-(trifluoromethyl)-1,2-dihydropyridine-3-carboxamide] | 6.25

Row | SMILES | pIC50
18 | Nc1ccc(CSc2ncc(C(=O)NC3c4ccc(Cl)cc4Oc4cc(Cl)ccc43)c(=O)[nH]2)cc1C(F)(F)F [Compound 522, 2-((4-amino-3-(trifluoromethyl)benzyl)thio)-N-(3,6-dichloro-9H-xanthen-9-yl)-6-oxo-1,6-dihydropyrimidine-5-carboxamide] | 6.21
19 | Cc1ccc2c(c1)Oc1cccc(C)c1C2NC(=O)c1cc(CCN(C)C)c(C(F)(F)F)[nH]c1=O (stereo not drawn) [Compound 523, N-(1,6-dimethyl-9H-xanthen-9-yl)-5-(2-(dimethylamino)ethyl)-2-oxo-6-(trifluoromethyl)-1,2-dihydropyridine-3-carboxamide] | < 5.00
20 | CNCCc1cc(C(=O)NC2c3ccc(C)cc3Oc3cccc(C)c32)c(=O)[nH]c1C(F)(F)F (stereo not drawn) [Compound 524, N-(1,6-dimethyl-9H-xanthen-9-yl)-5-(2-(methylamino)ethyl)-2-oxo-6-(trifluoromethyl)-1,2-dihydropyridine-3-carboxamide] | 5.03
21 | CNCc1cc(C(=O)NC2c3ccc(C)cc3Oc3cccc(C)c32)c(=O)[nH]c1C(F)(F)F (stereo not drawn) [Compound 525, N-(1,6-dimethyl-9H-xanthen-9-yl)-5-((methylamino)methyl)-2-oxo-6-(trifluoromethyl)-1,2-dihydropyridine-3-carboxamide] | 5.19
22 | Cc1ccc2c(c1)Oc1cccc(C)c1C2NC(=O)c1cc(CN(C)C)c(C(F)(F)F)[nH]c1=O (stereo not drawn) [Compound 526, N-(1,6-dimethyl-9H-xanthen-9-yl)-5-((dimethylamino)methyl)-2-oxo-6-(trifluoromethyl)-1,2-dihydropyridine-3-carboxamide] | 5.42
23 | N#Cc1cccc2c1C(NC(=O)c1ccc(C(F)(F)F)[nH]c1=O)c1ccccc1O2 (stereo not drawn) [Compound 527, N-(1-cyano-9H-xanthen-9-yl)-2-oxo-6-(trifluoromethyl)-1,2-dihydropyridine-3-carboxamide] | 6.00
24 | O=C(NC1c2ccc(Cl)cc2Oc2cccc(Cl)c21)c1cnc(SCc2ccccc2C(F)(F)F)[nH]c1=O (stereo not drawn) [Compound 529, N-(1,6-dichloro-9H-xanthen-9-yl)-6-oxo-2-((2-(trifluoromethyl)benzyl)thio)-1,6-dihydropyrimidine-5-carboxamide] | < 5.00
25 | CCc1cccc2c1CCCC2NC(=O)c1ccc(C(F)(F)F)[nH]c1=O (stereo not drawn) [Compound 530, N-(5-ethyl-1,2,3,4-tetrahydronaphthalen-1-yl)-2-oxo-6-(trifluoromethyl)-1,2-dihydropyridine-3-carboxamide] | < 5.00
26 | CCCc1cccc2c1CCCC2NC(=O)c1ccc(C(F)(F)F)[nH]c1=O (stereo not drawn) [Compound 531, 2-oxo-N-(5-propyl-1,2,3,4-tetrahydronaphthalen-1-yl)-6-(trifluoromethyl)-1,2-dihydropyridine-3-carboxamide] | < 5.00
27 | C=CCc1cccc2c1CCCC2NC(=O)c1ccc(C(F)(F)F)[nH]c1=O (stereo not drawn) [Compound 532, N-(5-allyl-1,2,3,4-tetrahydronaphthalen-1-yl)-2-oxo-6-(trifluoromethyl)-1,2-dihydropyridine-3-carboxamide] | 5.28
28 | O=C(NC1c2ccc(Cl)cc2Oc2cc(Cl)ccc21)c1cnc(COc2cccc(C(F)(F)F)c2)[nH]c1=O [Compound 534, N-(3,6-dichloro-9H-xanthen-9-yl)-6-oxo-2-((3-(trifluoromethyl)phenoxy)methyl)-1,6-dihydropyrimidine-5-carboxamide] | 5.97
29 | Cc1ccc2c(c1)Sc1cc(C)ccc1C2NC(=O)c1cc(Br)c(C(F)(F)F)[nH]c1=O [Compound 535, 5-bromo-N-(3,6-dimethyl-9H-thioxanthen-9-yl)-2-oxo-6-(trifluoromethyl)-1,2-dihydropyridine-3-carboxamide] | 7.30
30 | C=Cc1ccc2c(c1)C(NC(=O)c1ccc(C(F)(F)F)[nH]c1=O)c1ccccc1S2 (stereo not drawn) [Compound 536, 2-oxo-6-(trifluoromethyl)-N-(2-vinyl-9H-thioxanthen-9-yl)-1,2-dihydropyridine-3-carboxamide] | 6.49
31 | CCc1ccc2c(c1)C(NC(=O)c1ccc(C(F)(F)F)[nH]c1=O)c1ccccc1S2 (stereo not drawn) [Compound 537, N-(2-ethyl-9H-thioxanthen-9-yl)-2-oxo-6-(trifluoromethyl)-1,2-dihydropyridine-3-carboxamide] | 6.82
32 | C=Cc1cc(C(=O)NC2c3ccc(C)cc3Sc3cc(C)ccc32)c(=O)[nH]c1C(F)(F)F [Compound 538, N-(3,6-dimethyl-9H-thioxanthen-9-yl)-2-oxo-6-(trifluoromethyl)-5-vinyl-1,2-dihydropyridine-3-carboxamide] | 7.40
33 | C=CCc1cccc(C(NC(=O)c2ccc(C(F)(F)F)[nH]c2=O)c2ccccc2)c1 (stereo not drawn) [Compound 539, N-((3-allylphenyl)(phenyl)methyl)-2-oxo-6-(trifluoromethyl)-1,2-dihydropyridine-3-carboxamide] | 6.13

From patent publication US11957687B2 (REGENERON PHARMACEUTICALS, INC., priority 2019, dated 2024)
